Assay results as given in patent publication US8674096B2, “Substituted imidazo[1,5-a]quinoxalin-4-ones as phosphodiesterase 9 inhibitors” (priority 2009, dated 2014).

Row | SMILES | melting point
1 | Cc1cc2c(cc1C(=O)N1Cc3ccc(F)cc3C1)[nH]c(=O)c1cnc(C3CCCC3)n12 | 228 to 231 °C
2 | CCCc1nnc2c(=O)[nH]c3cc(C(=O)N4CCc5c(Cl)cccc5C4)ccc3n12 | 293 to 295 °C
3 | O=C(c1cc2[nH]c(=O)c3cnc(C4CCOCC4)n3c2cc1C1CC1)N1CCc2cc(C3CC3)cnc21 | 310 °C (dec.)
4 | Cc1cc2c(cc1C(=O)N1CCc3cc(Cl)ccc31)[nH]c(=O)c1nnc(C3CCC(F)(F)CC3)n12 | 230 to 233 °C
5 | Cc1cc2c(cc1C(=O)N1Cc3ccccc3C1)[nH]c(=O)c1nnc(C3CCCOC3)n12.Cl (stereo not shown) | 303 °C (dec.)
6 | Cc1cc2c(cc1C(=O)N1CCc3cc(F)c(F)cc31)[nH]c(=O)c1cnc(C3CCOCC3)n12.Cl | 287 to 288 °C
7 | Cc1cc2c(cc1C(=O)N1CCc3cccnc31)[nH]c(=O)c1cnc(C3CCOCC3)n12 | 341 °C (dec.)
8 | Cc1cc2c(cc1C(=O)N1CCc3c(Cl)cccc3C1)[nH]c(=O)c1cnc(C3CCOCC3)n12 | 267 °C (dec.)
9 | Cc1cc2c(cc1C(=O)N1CCc3onc(-c4ccc(F)cc4)c3C1)[nH]c(=O)c1nnc(C3CCOC3)n12 (stereo not shown) | 282 to 284 °C (dec.)
10 | Cc1cc2c(cc1C(=O)N1CCc3cccnc31)[nH]c(=O)c1nnc(C3CCOC3)n12.Cl (stereo not shown) | 210 to 211 °C (dec.)
11 | O=C(c1ccc2c(c1)[nH]c(=O)c1nnc(C3CCOCC3)n12)N1Cc2ccccc2C1 | 303 °C (dec.)
12 | Cc1cc2c(cc1C(=O)N1CCN(C)C(c3ccccc3)C1)[nH]c(=O)c1cnc(C3CCOCC3)n12 (stereo not shown) | 189 to 192 °C
13 | Cc1cc2c(cc1C(=O)N1CCc3cnn(C)c3C1)[nH]c(=O)c1cnc(C3CCOCC3)n12 | 192 to 194 °C (dec.)
14 | Cc1cc2c(cc1C(=O)N1CCc3cc(Cl)ccc31)[nH]c(=O)c1cnc([C@H]3CC[C@H](O)CC3)n12.Cl | 207 to 209 °C
15 | COc1cc2c(cc1C(=O)N1CCc3cc(C4CC4)cnc31)[nH]c(=O)c1cnc(C3CCOCC3)n12 | 297 °C (dec.)
16 | Cc1cc2c(cc1C(=O)N1CCc3cc(F)ccc31)[nH]c(=O)c1c(C)nc(C3CCOCC3)n12 | 177 to 180 °C
17 | Cc1cc2c(cc1C(=O)N1CCc3cccnc31)[nH]c(=O)c1nnc(C3CCC(F)(F)CC3)n12.Cl | 310 °C (dec.)
18 | Cc1cc2c(cc1C(=O)N1CCc3ccccc31)[nH]c(=O)c1cnc(C3CCOCC3)n12.Cl | 216 to 219 °C
19 | CCCc1nnc2c(=O)[nH]c3cc(C(=O)N4CCc5c(Cl)cccc5C4)c(C)cc3n12 | 198 to 202 °C
20 | COc1cc2c(cn1)N(C(=O)c1cc3[nH]c(=O)c4nnc(C5CCCC5)n4c3cc1C)CC2 | 263 to 265 °C
21 | Cc1cc2c(cc1C(=O)N1CCc3c(Cl)cc(Cl)cc3C1)[nH]c(=O)c1cnc(C3CCOCC3)n12.Cl | 188 to 190 °C (dec.)
22 | Cc1cc2c(cc1C(=O)N1CCc3cc(Cl)ccc31)[nH]c(=O)c1c(C)nc(C3CCOCC3)n12.Cl | 198 °C (dec.)
23 | Cc1cc2c(cc1C(=O)N1CCc3cc(Cl)ccc31)[nH]c(=O)c1nnc(C(=O)C3CC3)n12.Cl | 288 to 290 °C
24 | COc1cc2c(cn1)N(C(=O)c1cc3[nH]c(=O)c4cnc(C5CCOCC5)n4c3cc1C)CC2 | 232 to 233 °C
25 | Cc1ccc2c(c1)CCN2C(=O)c1cc2[nH]c(=O)c3cnc(C4CCCOC4)n3c2cc1C.Cl (stereo not shown) | 204 to 206 °C
26 | Cc1cc2c(cc1C(=O)N1CCOC(c3ccccc3)C1)[nH]c(=O)c1cnc(C3CCCC3)n12 (stereo not shown) | 304 to 305 °C

Row | SMILES | melting point
27 | Cc1cc2c(cc1C(=O)N1Cc3cccc(C)c3C1)[nH]c(=O)c1cnc(C3CCOCC3)n12.Cl | 206 to 208 °C
28 | Cc1cc2c(cc1C(=O)N1CCc3cc(Cl)cnc31)[nH]c(=O)c1cnc(C3CCOCC3)n12.Cl | 297 °C (dec.)
29 | Cc1cc2c(cc1C(=O)N1CCc3cc(F)ccc31)[nH]c(=O)c1nnc(C3CCCOC3)n12.Cl (stereo not shown) | 235 to 237 °C
30 | Cc1cc2c(cc1C(=O)N1Cc3ccc(Cl)cc3C1)[nH]c(=O)c1cnc(C3CCCOC3)n12.Cl (stereo not shown) | 200 to 203 °C
31 | Cc1cc2c(cc1C(=O)N1CCc3cc(F)ccc31)[nH]c(=O)c1cnc(C3CCOC3)n12.Cl (stereo not shown) | 186 to 188 °C
32 | Cc1cc2c(cc1C(=O)N1CCc3ccc(C(F)(F)F)cc31)[nH]c(=O)c1cnc(C3CCOCC3)n12.Cl | 276 to 277 °C
33 | Cc1cc2c(cc1C(=O)N1CCc3c(Cl)cccc3C1)[nH]c(=O)c1nnc(C3CCOCC3)n12 | 269 °C (dec.)
34 | Cc1cc2c(cc1C(=O)N1CCc3cc(F)ccc31)[nH]c(=O)c1cnc([C@H]3CC[C@H](O)CC3)n12.Cl | 199 to 201 °C
35 | Cc1cc2c(cc1C(=O)N1Cc3ccccc3C1)[nH]c(=O)c1cnc(C3CCCC3)n12 | 304 °C (dec.)
36 | Cc1cc2c(cc1C(=O)N1Cc3ccc(Cl)cc3C1)[nH]c(=O)c1cnc(C3CCOC3)n12.Cl (stereo not shown) | 185 to 187 °C
37 | Cc1c(C(=O)N2Cc3ccccc3C2)ccc2c1[nH]c(=O)c1cnc(C3CCOCC3)n12.Cl | 183 to 186 °C
38 | Cc1cc2c(cc1C(=O)N1CCc3ccccc3CC1)[nH]c(=O)c1nnc(C3CCOCC3)n12.Cl | 212 to 215 °C
39 | Cc1cc2c(cc1C(=O)N1CCc3c(cc(-c4ccccc4)n3C)C1)[nH]c(=O)c1nnc(C3CCOCC3)n12 | 223 to 225 °C
40 | Cc1cc2c(cc1C(=O)N1Cc3ccccc3C1)[nH]c(=O)c1nnc(C3CCC(F)(F)CC3)n12 | 322 °C (dec.)
41 | Cc1cc2c(cc1C(=O)N1CCc3c(Cl)cccc31)[nH]c(=O)c1cnc(C3CCOCC3)n12.Cl | 272 to 273 °C
42 | Cc1ccc2c(c1)CCN2C(=O)c1cc2[nH]c(=O)c3c(C)nc(C4CCOCC4)n3c2cc1C.Cl | 264 to 266 °C (dec.)
43 | Cc1cc2c(cc1C(=O)N1Cc3c(F)ccc(F)c3C1)[nH]c(=O)c1cnc(C3CCCOC3)n12 (stereo not shown) | 223 to 225 °C
44 | Cl.O=C(c1cc2[nH]c(=O)c3cnc(C4CCOCC4)n3c2cc1Cl)N1CCc2cc(Cl)ccc21 | 352 °C (dec.)
45 | Cc1cc2c(cc1C(=O)N1Cc3ccccc3C1)[nH]c(=O)c1nnc(-c3ccccc3)n12 | 316 °C (dec.)
46 | COc1cc2c(cn1)N(C(=O)c1cc3[nH]c(=O)c4nnc(C5CCOCC5)n4c3cc1C)CC2 | 271 °C (dec.)
47 | Cc1cc2c(cc1C(=O)N1Cc3ccccc3C1)[nH]c(=O)c1nnc(CC3CCS(=O)(=O)CC3)n12.Cl | 253 °C (dec.)
48 | CCCc1nnc2c(=O)[nH]c3cc(C(=O)N4Cc5ccc(F)cc5C4)ccc3n12 | 293 °C (dec.)
49 | COc1cccc2c1CN(C(=O)c1cc3[nH]c(=O)c4cnc(C5CCOCC5)n4c3cc1C)C2.Cl | 209 °C (dec.)
50 | CN1CCN(C(=O)c2ccc3c(c2)[nH]c(=O)c2nnc(-c4ccc(O)cc4)n23)CC1c1ccccc1 (stereo not shown) | 286 °C (dec.)
51 | COCc1cc2c(cc1C(=O)N1CCc3cc(Cl)ccc31)[nH]c(=O)c1nnc(C3(C)CCOCC3)n12.Cl | 198 to 201 °C
52 | CN(C)CCOc1cc2c(cc1C(=O)N1CCc3cc(Cl)ccc31)[nH]c(=O)c1cnc(C3CCOCC3)n12 | 219 to 221 °C (dec.)

Row | SMILES | melting point
53 | Cc1cc2c(cc1C(=O)N1CCc3cc(F)ccc31)[nH]c(=O)c1nnc(C3CC(F)(F)C3)n12 | 234 to 235 °C
54 | Cc1cc2c(cc1C(=O)N1Cc3ccccc3C1)[nH]c(=O)c1cnc(C3CCOC3)n12.Cl (stereo not shown) | 270 °C (dec.)
55 | COc1cc2c(cc1C(=O)N1CCc3cc(Cl)ccc31)[nH]c(=O)c1nnc(C3CCOCC3)n12.Cl | 284 °C (dec.)
56 | Cc1cc2c(cc1C(=O)N1CCc3cc(Cl)ccc31)[nH]c(=O)c1nnc(C3(C)CCOCC3)n12.Cl | 229 to 232 °C
57 | Cc1cc2c(cc1C(=O)N1Cc3cccc(I)c3C1)[nH]c(=O)c1cnc(C3CCOCC3)n12.Cl | 313 °C (dec.)
58 | Cc1cc2c(cc1C(=O)N1Cc3cccc(C#N)c3C1)[nH]c(=O)c1cnc(C3CCOCC3)n12.Cl | 328 °C (dec.)
59 | Cc1cc2c(cc1C(=O)N1CCc3ccc([N+](=O)[O-])cc31)[nH]c(=O)c1cnc(C3CCOCC3)n12.Cl | 301 to 304 °C
60 | Cc1cc2c(cc1C(=O)N1CCc3cc(Br)ccc31)[nH]c(=O)c1cnc(C3CCOCC3)n12.Cl | 219 to 220 °C (dec.)
61 | Cc1cc2c(cc1C(=O)N1CCc3cc(Cl)ccc31)[nH]c(=O)c1nnc(C3CC(F)(F)C3)n12 | 243 to 245 °C
62 | Cc1cc2c(cc1C(=O)N1CCc3cc(F)ccc31)[nH]c(=O)c1nnc(C3CCC3)n12.Cl | 223 to 226 °C
63 | COc1cc2c(cc1C(=O)N1Cc3ccccc3C1)[nH]c(=O)c1cnc(C3CCOCC3)n12.Cl | 199 to 201 °C (dec.)
64 | Cc1cc2c(cc1C(=O)N1Cc3c(F)ccc(F)c3C1)[nH]c(=O)c1cnc(C3CCOCC3)n12.Cl | 199 to 201 °C (dec.)
65 | COc1cc2c(cc1C(=O)N1Cc3cccc(F)c3C1)[nH]c(=O)c1cnc(C3CCOCC3)n12.Cl | 195 to 197 °C
66 | Cc1cc2c(cc1C(=O)N1CCc3cc(Cl)ccc31)[nH]c(=O)c1cnc(C3CCCOC3)n12.Cl (stereo not shown) | 206 to 208 °C
67 | Cc1c(C(=O)N2CCc3cccnc32)ccc2c1[nH]c(=O)c1cnc(C3CCOCC3)n12.Cl | 320 °C (dec.)
68 | Cc1ccc2c(c1)CCN2C(=O)c1cc2[nH]c(=O)c3cnc(C4CCOCC4)n3c2cc1C.Cl | 282 to 284 °C
69 | COc1cc2c(cn1)N(C(=O)c1cc3[nH]c(=O)c4cnc(C5CCOCC5)n4c3cc1C1CC1)CC2 | 241 °C (dec.)
70 | Cc1cc2c(cc1C(=O)N1Cc3ccccc3C1)[nH]c(=O)c1nnc([C@@H]3CCC[C@@H]3O)n12 (racemic) | 316 °C (dec.)
71 | Cc1cc2c(cc1C(=O)N1Cc3ccccc3C1)[nH]c(=O)c1nnc(C3CCCC3)n12 | 318 °C (dec.)
72 | Cc1cc2c(cc1C(=O)N1CCc3c(Cl)cccc3C1)[nH]c(=O)c1nnc(-c3sccc3C)n12 | 310 to 312 °C
73 | Cc1cc2c(cc1C(=O)N1Cc3ccccc3C1)[nH]c(=O)c1c(C)nc(C3CCOCC3)n12.Cl | 335 °C (dec.)
74 | Cc1cc2c(cc1C(=O)N1CCc3cc(F)c(Cl)cc31)[nH]c(=O)c1cnc(C3CCOCC3)n12.Cl | 315 °C (dec.)
75 | Cc1cc2c(cc1C(=O)N1CCc3cccnc31)[nH]c(=O)c1nnc(C3CCOCC3)n12 | 370 °C (dec.)
76 | Cc1cc2c(cc1C(=O)N1CCc3cc(Cl)ccc31)[nH]c(=O)c1nnc([C@H]3CC[C@H](O)CC3)n12.Cl | 235 to 237 °C
